In patent EP0173480A2, “The antiviral use of phyllanthostatins” (priority 1984, dated 1986):
“Also recorded” adds a separate entry of the source. Like-named read-outs stand apart in the source and are kept apart here.

Tests used:
[1] = tested on: herpes simplex virus type 1 (HSV-1, McIntyre); assay: Inhibition of virus replication, virus yield by plaque method; assay type: cell-based; set-up: ED90 McIntyre: unit not given here; settings: for HSV-1 virus yield: Vero cells; for ED90 McIntyre: HSV-1 in Vero cells, drug concentration reducing virus titers by 90%, unit only in b38
[2] = tested on: herpes simplex virus type 2 (HSV-2, MS); assay: as above; assay type: cell-based; settings: for ED90 MS: HSV-2 in Vero cells, drug concentration reducing virus titers by 90%
[3] = tested on: Herpes Simplex virus type 2 (HSV-2, strain 35D); assay: Genital HSV-2 infection of female mice, intravaginal treatment, survival; assay type: in vivo; settings: for mice survived (of 14): study of Table 3; for %S (percent survivors) / MDD (mean day of death): N 14; for protection of mice from lethal genital HSV-2 infection, summary in words: intravaginally from one hour after inoculation, 3 times daily
Vacc. = settings: 50 pg of test compound (so in the source); for zone of cytotoxicity: first figure of the cell; for zone of antiviral activity (viral plaque inhibition): second figure of the cell
E.R. = settings: 50 pg of test compound (so in the source); for zone of cytotoxicity: first figure of the cell; for zone of antiviral activity (viral plaque inhibition): second figure of the cell
HSV-2 = assay: Cell culture antiviral activity, agar-well zones of cytotoxicity / plaque inhibition; settings: second figure of the cell, 50 pg of test compound (so in the source)
coxsackie A21 = assay type: cell-based; set-up: ED90 Col: unit not given beside the values; settings: for coxsackie A21 virus yield: ML cells
PR-8 = settings: 50 pg of test compound (so in the source); for zone of cytotoxicity: first figure of the cell; for zone of antiviral activity (viral plaque inhibition): second figure of the cell
HA-1 = assay: Cell culture antiviral activity, agar-well zones of cytotoxicity / plaque inhibition; settings: 50 pg of test compound (so in the source); for zone of cytotoxicity: first figure of the cell; for zone of antiviral activity (viral plaque inhibition): second figure of the cell
HSV-1 = assay: as above; settings: second figure of the cell, 50 pg of test compound (so in the source)
Coe = assay: as above; settings: second figure of the cell, 50 pg of test compound (so in the source)
[4] = tested on: coxsackie B3 virus (Nancy Strain); assay: Inhibition of virus replication, virus yield in Vero cells; assay type: cell-based
[5] = tested on: VSV (vesicular stomatitis virus); assay type: cell-based; set-up: ED90 VSV: unit not given beside the values; settings: Vero cells
[6] = tested on: Herpes Simplex virus type 2 (HSV-2, strain 35D); assay: Genital HSV-2 infection of female mice, virus titers in vaginal secretions; assay type: in vivo; settings: for Mean virus titer in swabs of mice which shed virus / Nv/Nt, swabs with virus/total swabs: 8.0 x 10^4 PFU;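 on Mean virus titer in swabs of mice which shed virus: titer expressed as log PFU per ml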
Vero cells = settings: monkey
[7] = 8.0 x 10^3 PFU/0.1 ml, mg/ml cell empty (1 mg/ml in upper section)
[8] = 8.0 x 10^4 PFU/0.1 ml, 1 mg/ml intravaginally
[9] = second study, 8.0 x 10^4 PFU in 0.1 ml, 0.5 mg/ml
[10] = higher drug concentrations (5 and 50 µg/ml) compared with 0.5
[11] = day 1 after HSV-2 inoc., 0.5 mg/ml
[12] = day 1 after HSV-2 inoc., 1 mg/ml
[13] = day 2 after HSV-2 inoc., 0.5 mg/ml
[14] = day 2 after HSV-2 inoc., 1 mg/ml
[15] = day 3 after HSV-2 inoc., 0.5 mg/ml
[16] = day 3 after HSV-2 inoc., 1 mg/ml
[17] = day 4 after HSV-2 inoc., 0.5 mg/ml
[18] = day 4 after HSV-2 inoc., 1 mg/ml
[19] = day 7 after HSV-2 inoc., 0.5 mg/ml
[20] = day 7 after HSV-2 inoc., 1 mg/ml

With Phyllanthostatin 3 the HSV-1 virus yield ([1]; 50 µg/ml) was “slight reduction in yields” and the HSV-2 virus yield ([2]; Vero cells, 50 µg/ml) was “slight reduction in yields”.

Phyllanthostatin I was tested, and the “mice survived (of 14)” value ([3]; 8.0 x 10^3 PFU in 0.1 ml) was 10, the “%S (percent survivors)” value [3, 7] was 71% and the “MDD (mean day of death)” value [3, 7] was 11.8 days. The “mice survived (of 14)” value ([3]; 8.0 x 10^4 PFU in 0.1 ml) was 4, the “%S (percent survivors)” value [3, 8] was 29% and the “MDD (mean day of death)” value [3, 8] was 7.4 days. For the same compound, the “protection of mice from lethal genital HSV-2 infection, summary in words” value [3] was “protected mice from lethal infection when the virus inoculum was reduced”, the MDD [3, 9] was “the same as the saline and DMSO saline treated group” and the mice survived [3, 9] was “all of the animals succumed to infection”. The death of mice ([3]; second study, 8.0 x 10^4 PFU in 0.1 ml, 1 mg/ml) was 80%, the zone of cytotoxicity (Vacc.) was 4/4 and the “zone of antiviral activity (viral plaque inhibition)” value (from here on “zone … (viral plaque inhibition)”) (Vacc.) was 4/4. The zone of cytotoxicity (E.R.) was 2 (2 - 20-30 mm), the “zone … (viral plaque inhibition)” value (E.R.) was 4 and the “zone … (viral plaque inhibition)” value (HSV-2) was 4/4. The “coxsackie A21 virus yield” value (coxsackie A21; 5 µg/ml (below 5 µg per ml)) was “inhibitory for both viruses”, the “coxsackie A21 virus yield” value (coxsackie A21; below 5 µg per ml (i.e., 0.5 or 1), study of b36) was “reduced titers of coxsackie A21” and the “coxsackie A21 virus yield” value (coxsackie A21; [10]) was “further reductions in all virus yields”. For the same compound, the zone of cytotoxicity (PR-8) was 2/2 (2 - 20-30 mm), the “zone … (viral plaque inhibition)” value (PR-8) was 2/2 (2 - 20-30 mm) and the zone of cytotoxicity (HA-1) was 4. The “zone … (viral plaque inhibition)” value (HA-1) was 0, the “zone … (viral plaque inhibition)” value (HSV-1) was 4/4 and the “ED90 McIntyre” value ([1]; listed as Phyllanthostatin) was 2.3743. For the same compound, the “ED90 McIntyre” value ([1]; listed as phyllanthostatin I) was 2.37, the HSV-1 virus yield [1, 10] was “further reductions in all virus yields” and the “zone … (viral plaque inhibition)” value (Coe) was 0. For the same compound, the “coxsackie B3 virus yield” value ([4]; 5 µg per ml) was “inhibitory for both viruses”, the “coxsackie B3 virus yield” value ([4]; below 5 µg per ml (i.e., 0.5 or 1)) was “unaffected” and the VSV virus yield [5, 10] was “further reductions in all virus yields”. The “mean titers compared with controls” value ([6]; 0.5 mg/ml, day 4) was “nearly the same as that in the controls”, the “mean virus titers less than placebo treated group” value ([6]; 0.5 mg/ml, days 2 and 3) was “about 0.7 logs” and the “mean titer less than the placebo” value ([6]; 1 mg/ml, day 1) was “greater than 2 logs”. The “mean virus titers lower than placebo treated controls” value ([6]; 1 mg/ml, days 2 through 4) was “about 0.5 logs”, the “Mean virus titer in swabs of mice which shed virus” value (from here on “Mean virus titer in swabs”) [6, 11] was 2.69 log PFU/ml and the “Nv/Nt, swabs with virus/total swabs” value [6, 11] was 9/10. For the same compound, the “Mean virus titer in swabs” value [6, 12] was 1.67 log PFU/ml, the “Nv/Nt, swabs with virus/total swabs” value [6, 12] was 4 and the “Nv/Nt, swabs with virus/total swabs” value ([6]; day 1 after HSV-2 inoc., 1 mg/ml, listed as Phyllanostatin I) was 6/10. The “Mean virus titer in swabs” value [6, 13] was 3.76 log PFU/ml, the “Nv/Nt, swabs with virus/total swabs” value [6, 13] was 10/10 and the “Mean virus titer in swabs” value [6, 14] was 3.83 log PFU/ml. For the same compound, the “Nv/Nt, swabs with virus/total swabs” value [6, 14] was 8/10, the “Mean virus titer in swabs” value [6, 15] was 3.71 log PFU/ml and the “Nv/Nt, swabs with virus/total swabs” value [6, 15] was 10/10. The “Mean virus titer in swabs” value [6, 16] was 3.93 log PFU/ml, the “Nv/Nt, swabs with virus/total swabs” value [6, 16] was 8/10 and the “Mean virus titer in swabs” value [6, 17] was 4.13 log PFU/ml. For the same compound, the “Nv/Nt, swabs with virus/total swabs” value [6, 17] was 10/10, the “Mean virus titer in swabs” value [6, 18] was 3.63 log PFU/ml and the “Nv/Nt, swabs with virus/total swabs” value [6, 18] was 8/10. The “Mean virus titer in swabs” value [6, 19] was “(3.98) log PFU/ml”, the “Nv/Nt, swabs with virus/total swabs” value [6, 19] was 1/1 and the “Mean virus titer in swabs” value [6, 20] was 3.47 log PFU/ml. For the same compound, the “Nv/Nt, swabs with virus/total swabs” value [6, 20] was 3/5, the “ED90 MS” value [2] was 1.64 µg per ml and the “ED90 MS” value ([2]; 1440 min) was 1.164 µg per ml. For the same compound, the HSV-2 virus yield ([2]; Vero cells, 0.5 µg/ml) was “most susceptible virus to inhibition” and the HSV-2 virus yield ([2]; Vero cells, higher drug concentrations (5 and 50 µg/ml) compared with 0.5) was “further reductions in all virus yields”.

For `COC(=O)C1CCC2C(C1)OC1(CC(OC(=O)/C=C/c3ccccc3)C(C)CO1)C21CO1` (stereo not shown) [Phyllanthocin], the “mice survived (of 14)” value ([3]; 8.0 x 10^3 PFU in 0.1 ml) was “four”, the “%S (percent survivors)” value [3, 7] was 29% and the “MDD (mean day of death)” value [3, 7] was 8.5 days. The “mice survived (of 14)” value ([3]; 8.0 x 10^4 PFU in 0.1 ml) was “did not protect mice from lethal infection”, the “%S (percent survivors)” value [3, 8] was 14% and the “MDD (mean day of death)” value [3, 8] was 8.0 days. For the same compound, the “protection of mice from lethal genital HSV-2 infection, summary in words” value [3] was “devoid of antiviral activity”, the zone of cytotoxicity (Vacc.) was 0 and the “zone … (viral plaque inhibition)” value (Vacc.) was 4. For the same compound, the zone of cytotoxicity (E.R.) was 0/0, the “zone … (viral plaque inhibition)” value (E.R.) was 0/0 and the “zone … (viral plaque inhibition)” value (HSV-2) was 2 (2 - 20-30 mm). For the same compound, the “coxsackie A21 virus yield” value (coxsackie A21; 5 µg/ml (below 5 µg per ml)) was “non-inhibitory; also recorded: did not reduce the yields; also recorded: not affected; also recorded: not for VSV or Coxsackie A-21”, the “coxsackie A21 virus yield” value (coxsackie A21; 50 µg/ml) was “reduced yields of all viruses; also recorded: reduction in titers of all viruses” and the “ED90 Col” value (coxsackie A21; […], unit not given, NS - not significant) was 61.7506. The zone of cytotoxicity (PR-8) was 2 (2 - 20-30 mm), the “zone … (viral plaque inhibition)” value (PR-8) was 0 and the zone of cytotoxicity (HA-1) was 0/0. The “zone … (viral plaque inhibition)” value (HA-1) was 0/0, the “zone … (viral plaque inhibition)” value (HSV-1) was 3 and the “ED90 McIntyre” value [1] was 7.1380. For the same compound, the “ED90 McIntyre” value ([1]; listed as phyllanthocin) was 7.14, the HSV-1 virus yield ([1]; 5 µg/ml) was “only modestly inhibitory; also recorded: reductions in yields” and the HSV-1 virus yield ([1]; 50 µg/ml) was “reduced yields of all viruses; also recorded: reduction in titers of all viruses”. For the same compound, the “times less cytotoxic than phyllanthoside or phyllanthostatin I” value (Vero cells) was 2-5, the “ID50 Vero 72 hrs.” value (Vero cells; vero cells, 72 h) was 5.91 mg per ml and the “zone … (viral plaque inhibition)” value (Coe) was 0/0. For the same compound, the “coxsackie B3 virus yield” value ([4]; 5 µg per ml) was “inhibitory for coxsackie B3 replication”, the VSV virus yield ([5]; 5 µg/ml (below 5 µg per ml)) was “non-inhibitory; also recorded: not affected; also recorded: not for VSV or Coxsackie A-21” and the VSV virus yield ([5]; 50 µg/ml) was “reduced yields of all viruses; also recorded: reduction in titers of all viruses”. The “ED90 VSV” value ([5]; reduces virus yield by 90%, unit not given, NS - not significant) was 8.668, the “ED90 MS” value [2] was 7.99 µg per ml and the “ED90 MS” value ([2]; 1440 min) was 7.9939 µg per ml. For the same compound, the “HSV-2 yields reduced by” value ([2]; Vero cells, 5 µg per ml) was “greater than 1 log”, the HSV-2 virus yield ([2]; Vero cells, 5 µg/ml) was “reductions in yields; also recorded: inhibitory” and the HSV-2 virus yield ([2]; Vero cells, 50 µg/ml) was “reduced yields of all viruses; also recorded: reduction in titers of all viruses”.
